Columns and labels:
[1] = biological target: T1, human adrenergic-α2A receptor (Homo sapiens, UniProt P08913); assay: Radioligand binding experiment for α2A-adrenoceptor ([3H]-raulwolscine competition, CHO cell membranes); settings: [3H]raulwolscine 1 nM, membranes of CHO cells transfected with human α2A receptor; read-out: pIC50 α2A (converted)
T1 construct: expressed in transfected cells; membrane preparation
T1 sequence (P08913 1-465): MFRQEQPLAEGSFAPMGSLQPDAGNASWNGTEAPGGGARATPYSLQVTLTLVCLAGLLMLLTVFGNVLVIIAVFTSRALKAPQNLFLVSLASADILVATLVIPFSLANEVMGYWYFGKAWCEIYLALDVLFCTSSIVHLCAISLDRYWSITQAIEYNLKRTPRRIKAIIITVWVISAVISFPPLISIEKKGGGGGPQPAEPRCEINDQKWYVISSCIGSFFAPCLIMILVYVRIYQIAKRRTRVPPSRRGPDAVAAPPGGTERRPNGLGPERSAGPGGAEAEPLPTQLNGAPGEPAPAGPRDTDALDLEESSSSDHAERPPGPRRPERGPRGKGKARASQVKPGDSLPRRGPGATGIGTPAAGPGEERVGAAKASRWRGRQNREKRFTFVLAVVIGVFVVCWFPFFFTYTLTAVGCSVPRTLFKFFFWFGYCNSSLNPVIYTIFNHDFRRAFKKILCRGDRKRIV
Description: (§1) The interaction of the compounds of Formula (I) with α2C-adrenoceptor receptors was assessed in in vitro radioligand binding experiments. In general, a low concentration of a radioligand with a high binding affinity for a particular receptor or transporter is incubated with a sample of a tissue preparation enriched in a particular receptor or transporter or with a preparation of cells expressing cloned human receptors in a buffered medium. During the incubation, the radioligand binds to the receptor or transporter. When equilibrium of binding is reached, the receptor bound radioactivity is separated from the non-bound radioactivity, and the receptor- or transporter-bound activity is counted. The interaction of the test compounds with the receptor is assessed in competition binding experiments. Various concentrations of the test compound are added to the incubation mixture containing the receptor- or transporter preparation and the radioligand. The test compound in proportion to its binding affinity and its concentration inhibits binding of the radioligand. The radioligand used for […] receptor binding was [^3H]-raulwolscine.
(§2) CHO cells, stabile transfected with human adrenergic-α2A-, -α2B or α2C receptor cDNA, were cultured in Dulbecco's Modified Eagle's Medium (DMEM)/Nutrient mixture Ham's F12 (ratio 1:1)(Gibco, Gent-Belgium) supplemented with 10% heat inactivated fetal calf serum (Life Technologies, Merelbeke-Belgium) and antibiotics (100 IU/ml penicillin G, 100 μg/ml streptomycin sulphate, 110 μg/ml pyruvic acid and 100 μg/ml L-glutamine). One day before collection, cells were induced with 5 mM sodiumbutyrate. Upon 80-90% of confluence, cells were scraped in phosphate buffered saline without Ca^2+ and Mg^2+ and collected by centrifugation at 1500×g for 10 min. The cells were homogenised in Tris-HCl 50 mM using an Ultraturrax homogenizer and centrifuged for 10 min at 23,500×g. The pellet was washed once by resuspension and rehomogenization and the final pellet was resuspended in Tris-HCl, divided in 1 ml aliquots and stored at −70° C.
(§3) Membranes were thawed and re-homogenized in incubation buffer (glycylglycine 25 mM, pH 8.0). In a total volume of 500 μl, 2-10 μg protein was incubated with [^3H]raulwolscine (NET-722) (New England Nuclear, USA) (1 nM final concentration) with or without competitor for 60 min at 25° C. followed by rapid filtration over GF/B filter using a Filtermate196 harvester (Packard, Meriden, Conn.). Filters were rinsed extensively with ice-cold rinsing buffer (Tris-HCl 50 mM pH 7.4). Filter-bound radioactivity was determined by scintillation counting in a Topcount (Packard, Meriden, CT) and results were expressed as counts per minute (cpm). Non-specific binding was determined in the presence of 1 μM oxymetazoline for hα2A- and hα2B receptors and 1 μM spiroxatrine for hα2C receptors.
(§4) Data from assays in the presence of compound were calculated as a percentage of total binding measured in the absence of test compound. Inhibition curves, plotting percent of total binding versus the log value of the concentration of the test compound, were automatically generated, and sigmoidal inhibition curves were fitted using non-linear regression. The pIC50 values of test compounds were derived from individual curves.

[2] = biological target: T2, human adrenergic-α2B receptor (Homo sapiens, UniProt P18089); assay: Radioligand binding experiment for α2B-adrenoceptor ([3H]-raulwolscine competition, CHO cell membranes); settings: [3H]raulwolscine 1 nM, membranes of CHO cells transfected with human α2B receptor; for IC50: read-out: pIC50 α2B (converted)
T2 construct: expressed in transfected cells; membrane preparation
T2 sequence (P18089 1-450): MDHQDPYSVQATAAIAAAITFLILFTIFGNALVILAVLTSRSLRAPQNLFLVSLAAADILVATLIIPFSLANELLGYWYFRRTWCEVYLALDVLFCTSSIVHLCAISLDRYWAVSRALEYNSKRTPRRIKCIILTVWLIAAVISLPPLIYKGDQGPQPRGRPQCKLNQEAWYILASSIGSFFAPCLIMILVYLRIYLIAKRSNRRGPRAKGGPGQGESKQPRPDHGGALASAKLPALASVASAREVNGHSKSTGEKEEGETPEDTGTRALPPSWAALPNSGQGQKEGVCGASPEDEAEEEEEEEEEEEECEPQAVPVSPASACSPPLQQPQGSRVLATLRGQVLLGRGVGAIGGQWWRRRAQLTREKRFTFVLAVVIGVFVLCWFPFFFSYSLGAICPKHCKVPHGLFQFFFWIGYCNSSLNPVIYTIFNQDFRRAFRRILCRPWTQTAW
Description: as §1, §2, §3, §4

[3] = biological target: T3, human adrenergic-α2C receptor (Homo sapiens, UniProt P18825); assay: Radioligand binding experiment for α2C-adrenoceptor ([3H]-raulwolscine competition, CHO cell membranes); settings: [3H]raulwolscine 1 nM, membranes of CHO cells transfected with human α2C receptor; for IC50: read-out: pIC50 α2C (converted)
T3 construct: expressed in transfected cells; membrane preparation
T3 sequence (P18825 1-462): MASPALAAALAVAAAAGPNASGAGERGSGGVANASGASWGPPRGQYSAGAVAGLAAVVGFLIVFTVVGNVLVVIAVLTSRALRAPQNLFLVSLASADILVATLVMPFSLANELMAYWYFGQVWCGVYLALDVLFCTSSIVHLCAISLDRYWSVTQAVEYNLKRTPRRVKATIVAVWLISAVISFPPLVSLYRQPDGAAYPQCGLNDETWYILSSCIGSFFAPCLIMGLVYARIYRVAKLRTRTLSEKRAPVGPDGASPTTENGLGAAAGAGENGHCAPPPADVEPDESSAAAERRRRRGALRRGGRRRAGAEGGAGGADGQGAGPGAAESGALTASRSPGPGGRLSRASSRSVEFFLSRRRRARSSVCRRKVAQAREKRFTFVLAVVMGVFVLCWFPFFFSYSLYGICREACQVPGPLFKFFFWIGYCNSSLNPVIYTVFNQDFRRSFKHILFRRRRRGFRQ
Description: as §1, §2, §3, §4

SMILES	IC50 [1] [nM]	IC50 [2] [nM]	IC50 [3] [nM]	pIC50 α2C [3]	pIC50 α2B [2]
CS(=O)(=O)N1CCc2cc(-n3cnn(CCNCCOc4ccccc4)c3=O)ccc2C1 [compound 101]	631	251	7.94	–	–
CN(Cc1ccccc1)Cc1ccc(-n2cnn(CCNCCOc3ccccc3)c2=O)cc1 [compound 94]	31.6	126	3.16	–	–
O=c1n(-c2ccc(N3CCC(N4CCCC4)CC3)cc2)cnn1CCNCCOc1ccccc1 [compound 20]	100	100	3.98	–	–
O=c1n(-c2ccc(CNCCc3ccccc3)cc2)cnn1CCNCCOc1ccccc1 [compound 90]	20	50.1	0.631	–	–
O=c1n(CCN2CCCCC2)cnn1CCNCCOc1ccccc1 [compound 16]	158	1580	10	–	–
O=c1n(-c2ccc3c(c2)CCNC3)cnn1CCNCCOc1ccccc1 [compound 97]	50.1	251	2	–	–
O=c1n(-c2ccc(CN3CCC(N4CCCC4)CC3)cc2)cnn1CC1CCN(CCOc2ccccc2)CC1 [compound 68]	39.8	7.94	2.51	–	–
CC(C)N1CCc2cc(-n3cnn(CCNCCOc4ccccc4)c3=O)ccc2C1 [compound 103]	501	794	25.1	–	–
O=c1n(-c2ccc(CN3CCCCC3)cc2)cnn1CC1CCN(CCOc2ccccc2)CC1 [compound 64]	50.1	12.6	0.631	–	–
O=c1n(-c2ccc(CNCC3CCCO3)cc2)cnn1CCNCCOc1ccccc1 (stereo not drawn) [compound 93]	50.1	126	1.26	–	–
C/C(=C\c1ccccc1)CN1CCC(n2cnn(CCNCCOc3ccccc3)c2=O)CC1 [compound 28]	126	200	–	8.4	–
CN(Cc1ccccc1)C(=O)Cn1cnn(CC2CCN(CCOc3ccccc3)CC2)c1=O [compound 46]	126	158	6.31	–	–
O=c1n(-c2ccc(CN3CCOCC3)cc2)cnn1CCNCCOc1ccccc1 [compound 24]	251	–	5.01	–	6.6
C/C(=C\c1ccccc1)CN1CCC(n2cnn(CCCN3C(=O)c4ccccc4C3=O)c2=O)CC1 [compound 83]	316	50.1	5.01	–	–
C/C(=C\c1ccccc1)CN1CCC(n2cnn(-c3ccc(NCCN(C)C)cc3)c2=O)CC1 [compound 31]	50.1	25.1	12.6	–	–
CN(C)CCNc1ccc(-n2cnn(CC3CCN(CCOc4ccccc4)CC3)c2=O)cc1 [compound 38]	25.1	3.98	1.58	–	–
C/C(=C\c1ccccc1)CN1CCC(CCn2ncn(-c3ccc(NCCN(C)C)cc3)c2=O)CC1 [compound 41]	6.31	1.26	1.58	–	–
NCc1ccc(-n2cnn(C3CCN(CCOc4ccccc4)CC3)c2=O)cc1 [compound 36]	39.8	79.4	12.6	–	–
O=c1n(-c2ccc(CNCc3ccccc3)cc2)cnn1CCNCCOc1ccccc1 [compound 92]	25.1	200	5.01	–	–
NCc1ccc(Cn2cnn(CCNCCOc3ccccc3)c2=O)cc1 [compound 85]	126	126	6.31	–	–
O=c1n(-c2ccc(CN3CCc4ccccc4C3)cc2)cnn1CCNCCOc1ccccc1 [compound 27]	25.1	79.4	1	–	–
O=c1n(-c2ccc(CN3CCCC3)cc2)cnn1CC1CCN(CCOc2ccccc2)CC1 [compound 62]	39.8	10	0.501	–	–
O=c1n(-c2ccc(CNCc3ccc(F)cc3)cc2)cnn1CCNCCOc1ccccc1 [compound 91]	31.6	79.4	5.01	–	–
O=c1n(CCNCCOc2ccccc2)cnn1CCN1CCCCC1 [compound 44]	126	3980	10	–	–
